According to ChEMBL document CHEMBL6096630, “Enhancing therapeutic efficacy in homologous recombination-proficient pancreatic cancer via the combination of PARP1-PROTAC and a BRD4 inhibitor” (Bioorg Med Chem, 2024):
Calls of active or inactive are those of the source. The rule behind the calls is not given here.

Key:
PANC-1 [1] = assay: Induction of cell cycle arrest in human PANC-1 cells assessed as decrease in CDK6 level at 2 uM incubated for 24 hrs in presence of JQ1 by […]; assay type: functional
PANC-1 [2] = assay: Synergistic antiproliferative activity against human PANC-1 cells expressing wild-type BRCA assessed as inhibition of cell viability incubated for 5 days in presence of JQ1 by CCK8 assay; assay type: functional, cell-based; details: time 5.0 day
[3] = target: T1, Protein cereblon/Poly [ADP-ribose] polymerase 1 (Homo sapiens, UniProt P09874+Q96SW2); assay: PROTAC activity at CRBN/PARP1 in human PANC-1 cells assessed as induction of PARP1 degradation incubated for 24 hrs by Western blot analysis; assay type: cell-based
[4] = target: T1, Protein cereblon/Poly [ADP-ribose] polymerase 1; assay: PROTAC activity at CRBN/PARP1 in human BXPC-3 cells assessed as induction of PARP1 degradation at 2 uM incubated for 24 hrs by immunofluorescence based analysis; assay type: cell-based
Target sequence in this assay (P09874 2-1014 limits assumed): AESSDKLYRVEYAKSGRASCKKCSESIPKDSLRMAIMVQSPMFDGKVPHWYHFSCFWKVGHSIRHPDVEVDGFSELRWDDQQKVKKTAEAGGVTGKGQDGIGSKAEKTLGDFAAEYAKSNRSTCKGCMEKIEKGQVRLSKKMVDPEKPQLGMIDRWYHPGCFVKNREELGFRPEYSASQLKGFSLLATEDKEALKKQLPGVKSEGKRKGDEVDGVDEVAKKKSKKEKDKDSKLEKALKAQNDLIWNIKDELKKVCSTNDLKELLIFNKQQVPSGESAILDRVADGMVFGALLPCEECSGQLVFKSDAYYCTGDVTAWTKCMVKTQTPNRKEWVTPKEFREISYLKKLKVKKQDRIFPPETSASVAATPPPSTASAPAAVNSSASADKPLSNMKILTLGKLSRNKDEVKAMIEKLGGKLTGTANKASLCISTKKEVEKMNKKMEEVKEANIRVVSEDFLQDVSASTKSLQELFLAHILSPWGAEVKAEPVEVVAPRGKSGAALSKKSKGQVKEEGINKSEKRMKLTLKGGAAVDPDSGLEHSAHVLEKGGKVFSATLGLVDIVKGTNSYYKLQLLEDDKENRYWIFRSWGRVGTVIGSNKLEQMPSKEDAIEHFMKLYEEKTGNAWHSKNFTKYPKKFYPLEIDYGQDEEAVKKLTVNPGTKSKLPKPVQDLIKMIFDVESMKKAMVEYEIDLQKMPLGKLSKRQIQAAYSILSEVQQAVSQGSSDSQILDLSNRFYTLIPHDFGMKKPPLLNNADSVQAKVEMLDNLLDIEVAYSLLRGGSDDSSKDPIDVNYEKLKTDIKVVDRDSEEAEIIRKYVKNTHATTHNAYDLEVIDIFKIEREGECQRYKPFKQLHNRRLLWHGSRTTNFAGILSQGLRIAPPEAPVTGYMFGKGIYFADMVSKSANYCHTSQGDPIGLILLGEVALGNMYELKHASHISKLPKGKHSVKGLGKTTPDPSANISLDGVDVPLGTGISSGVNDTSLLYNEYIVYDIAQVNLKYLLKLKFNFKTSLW
Target sequence in this assay (Q96SW2 whole entry partner): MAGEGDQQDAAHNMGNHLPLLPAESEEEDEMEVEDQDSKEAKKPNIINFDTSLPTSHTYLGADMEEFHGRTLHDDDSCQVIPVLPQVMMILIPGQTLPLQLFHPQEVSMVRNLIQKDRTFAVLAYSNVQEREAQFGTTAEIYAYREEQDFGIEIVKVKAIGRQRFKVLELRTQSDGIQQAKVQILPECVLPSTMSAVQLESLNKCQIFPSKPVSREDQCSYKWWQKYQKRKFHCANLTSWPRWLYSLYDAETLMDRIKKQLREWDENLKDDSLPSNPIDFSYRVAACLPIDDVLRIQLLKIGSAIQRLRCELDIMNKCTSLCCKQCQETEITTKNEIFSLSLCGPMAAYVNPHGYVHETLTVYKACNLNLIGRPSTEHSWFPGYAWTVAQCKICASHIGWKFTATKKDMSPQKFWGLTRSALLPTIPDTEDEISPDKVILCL

PANC-1 [5] = assay: Induction of DNA damage in human PANC-1 cells assessed as increase in gamma-H2AX level at 0.6 to 10 uM incubated for 48 hrs by Western blot analysis; assay type: functional, cell-based; details: dose 0.6-10 µM
PANC-1 [6] = assay: Induction of cell cycle arrest in human PANC-1 cells assessed as decrease in CDK4 level at 2 uM incubated for 24 hrs in presence of JQ1 by […]; assay type: functional
PANC-1 [7] = assay: Inhibition of colony formation in human PANC-1 cells at 1 uM incubated for 14 days by crystal violet staining based analysis; assay type: functional, cell-based; details: time 14.0 day
PANC-1 [8] = assay: Induction of apoptosis in human PANC-1 cells assessed as viable cells at 0.5 uM incubated for 48 hrs by Annexin V-FITC/PI staining based flow cytometry (reference value: 91.64 %); assay type: functional; details: read-out: Activity
[9] = Toxicity in BALB/c mouse xenografted with human PANC-1 cells assessed as pathological changes in spleen at 20 mg/kg, ip for 4 weeks administered for 5 days consecutively and 2 days without treatment on every week in presence of OL by H and E staining based analysis; assay type: organism-based; details: in vivo, 672 h
[10] = Toxicity in BALB/c mouse xenografted with human PANC-1 cells assessed as animal mortality at 20 mg/kg, ip for 4 weeks administered for 5 days consecutively and 2 days without treatment on every week; assay type: organism-based; details: in vivo, 672 h
PANC-1 [11] = assay: Induction of apoptosis in human PANC-1 cells assessed as necrotic cells at 0.25 uM incubated for 48 hrs by Annexin V-FITC/PI staining based flow cytometry (reference value: 3.09 %); assay type: functional
PANC-1 [12] = assay: Induction of apoptosis in human PANC-1 cells assessed as necrotic cells at 0.12 uM incubated for 48 hrs by Annexin V-FITC/PI staining based flow cytometry (reference value: 3.09 %); assay type: functional
[13] = Toxicity in BALB/c mouse xenografted with human PANC-1 cells assessed as pathological changes in heart at 20 mg/kg, ip for 4 weeks administered for 5 days consecutively and 2 days without treatment on every week in presence of OL by H and E staining based analysis; assay type: organism-based; details: in vivo, 672 h
PANC-1 [14] = assay: Induction of cell cycle arrest in human PANC-1 cells assessed as accumulation at G1 phase at 0.12 uM incubated for 24 hrs by PI staining based flow cytometry (reference value: 51.70 %); assay type: functional
PANC-1 [15] = assay: Antitumor activity against human PANC-1 cells xenografted in BALB/c mouse assessed as reduction in tumor growth at 20 mg/kg, ip for 4 weeks administered for 5 days consecutively and 2 days without treatment on every week; assay type: functional, organism-based
PANC-1 [16] = assay: Induction of cell cycle arrest in human PANC-1 cells assessed as accumulation at G1 phase at 0.25 uM incubated for 24 hrs by PI staining based flow cytometry (reference value: 51.70 %); assay type: functional
PANC-1 [17] = assay: Induction of cell cycle arrest in human PANC-1 cells assessed as accumulation at G1 phase at 1 uM incubated for 24 hrs in presence of OL by PI staining based flow cytometry (reference value: 51.70 %); assay type: functional
PANC-1 [18] = assay: Induction of apoptosis in human PANC-1 cells assessed as early apoptotic cells at 1 uM incubated for 48 hrs by Annexin V-FITC/PI staining based flow cytometry (reference value: 1.41 %); assay type: functional
PANC-1 [19] = assay: Induction of cell cycle arrest in human PANC-1 cells assessed as accumulation at G2 phase at 0.12 uM incubated for 24 hrs by PI staining based flow cytometry (reference value: 9.36 %); assay type: functional
PANC-1 [20] = assay: Induction of cell cycle arrest in human PANC-1 cells assessed as accumulation at G2 phase at 1 uM incubated for 24 hrs by PI staining based flow cytometry (reference value: 9.36 %); assay type: functional
PANC-1 [21] = assay: Induction of cell cycle arrest in human PANC-1 cells assessed as accumulation at G0/G1 phase at 1 uM incubated for 24 hrs in presence of OL by PI staining based flow cytometry relative to control; assay type: functional
PANC-1 [22] = assay: Induction of apoptosis in human PANC-1 cells assessed as early apoptotic cells at 1 uM incubated for 48 hrs in presence of OL by Annexin V-FITC/PI staining based flow cytometry (reference value: 1.41 %); assay type: functional
PANC-1 [23] = assay: Induction of cell cycle arrest in human PANC-1 cells assessed as accumulation at G1 phase at 1 uM incubated for 24 hrs by PI staining based flow cytometry (reference value: 51.70 %); assay type: functional
PANC-1 [24] = assay: Induction of apoptosis in human PANC-1 cells assessed as viable cells at 0.25 uM incubated for 48 hrs by Annexin V-FITC/PI staining based flow cytometry (reference value: 91.64 %); assay type: functional; details: read-out: Activity
PANC-1 [25] = assay: Antitumor activity against human PANC-1 cells xenografted in BALB/c mouse assessed as reduction in tumor growth at 20 mg/kg, ip for 4 weeks administered for 5 days consecutively and 2 days without treatment on every week in presence of OL; assay type: functional, organism-based
PANC-1 [26] = assay: Induction of apoptosis in human PANC-1 cells assessed as viable cells at 1 uM incubated for 48 hrs in presence of OL by Annexin V-FITC/PI staining based flow cytometry (reference value: 91.64 %); assay type: functional; details: read-out: Activity
PANC-1 [27] = assay: Induction of apoptosis in human PANC-1 cells assessed as necrotic cells at 1 uM incubated for 48 hrs by Annexin V-FITC/PI staining based flow cytometry (reference value: 3.09 %); assay type: functional
PANC-1 [28] = assay: Induction of cell cycle arrest in human PANC-1 cells assessed as accumulation at G2 phase at 1 uM incubated for 24 hrs in presence of OL by PI staining based flow cytometry (reference value: 9.36 %); assay type: functional
[29] = Toxicity in BALB/c mouse xenografted with human PANC-1 cells assessed as animal morbidity at 20 mg/kg, ip for 4 weeks administered for 5 days consecutively and 2 days without treatment on every week; assay type: organism-based; details: in vivo, 672 h
PANC-1 [30] = assay: Induction of cell cycle arrest in human PANC-1 cells assessed as accumulation at G2 phase at 0.25 uM incubated for 24 hrs by PI staining based flow cytometry (reference value: 9.36 %); assay type: functional
[31] = Toxicity in BALB/c mouse xenografted with human PANC-1 cells assessed as body weight loss at 20 mg/kg, ip for 4 weeks administered for 5 days consecutively and 2 days without treatment on every week; assay type: organism-based; details: in vivo, 672 h
PANC-1 [32] = assay: Induction of apoptosis in human PANC-1 cells at 2 uM incubated for 48 hrs by Annexin V-FITC/PI staining based flow cytometry relative to control; assay type: functional

## O=C1CCC(N2C(=O)c3cccc(NC(=O)CNCCCCCCCCCCC(=O)N4CCN(C(=O)c5cc(Cc6n[nH]c(=O)c7ccccc67)ccc5F)CC4)c3C2=O)C(=O)N1 (stereo not drawn)
PANC-1 [1]
  Activity: Active
PANC-1 [2]
  inhibition: Active
[3]
  DC50: 2.55 nM
[3]; dose <= 10.0 µM
  Activity: Dose-dependent-effect
[4]
  Activity: Active
PANC-1 [5]
  Activity: Active
PANC-1 [6]
  Activity: Active

## Cc1sc2c(c1C)C(c1ccc(Cl)cc1)=N[C@@H](CC(=O)OC(C)(C)C)c1nnc(C)n1-2
PANC-1 [7]
  inhibition: Active
PANC-1 [8]
  viability at 0.5 µM: 82.8%
[9]
  Activity: Non-toxic
[10]
  Activity: Non-toxic
PANC-1 [11]
  Activity: 2.48%
PANC-1 [12]
  Activity: 2.94%
[13]
  Activity: Non-toxic
PANC-1 [14]
  Activity: 46.24%
PANC-1 [15]
  Activity: Active
PANC-1 [16]
  Activity: 48.96%
PANC-1 [17]
  Activity: 58.42%
PANC-1 [18]
  Activity: 6.72%
PANC-1 [19]
  Activity: 13.25%
PANC-1 [20]
  Activity: 10.75%
PANC-1 [21]
  Activity: 12.43%
PANC-1 [22]
  Activity: 5.44%
PANC-1 [23]
  Activity: 58.49%
PANC-1 [24]
  viability at 0.25 µM: 89.4%
PANC-1 [25]
  Activity: Active
PANC-1 [26]
  viability at 1 µM: 68.3%
PANC-1 [27]
  Activity: 4.54%
PANC-1 [28]
  Activity: 15.74%
[29]
  Activity: Non-toxic
PANC-1 [30]
  Activity: 12.15%
[31]
  Activity: Toxic

## O=C(c1cc(Cc2n[nH]c(=O)c3ccccc23)ccc1F)N1CCN(C(=O)C2CC2)CC1 [OLAPARIB]
PANC-1 [32]
  Activity: 8.1%
